Where two headings read alike, the source gives them in different places.
Target: T1, Recombinant human renin (Homo sapiens, UniProt P00797)
T1 sequence (P00797 67-406): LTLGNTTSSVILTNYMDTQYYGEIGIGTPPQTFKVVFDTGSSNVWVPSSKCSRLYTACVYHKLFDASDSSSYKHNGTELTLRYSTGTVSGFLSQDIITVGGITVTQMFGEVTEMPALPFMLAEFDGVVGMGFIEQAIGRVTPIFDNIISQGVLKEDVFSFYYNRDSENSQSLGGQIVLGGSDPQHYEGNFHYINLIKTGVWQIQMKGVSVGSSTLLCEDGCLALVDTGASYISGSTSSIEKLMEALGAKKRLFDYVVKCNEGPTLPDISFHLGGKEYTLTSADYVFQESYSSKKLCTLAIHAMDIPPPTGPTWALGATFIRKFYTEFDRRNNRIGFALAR
Assay: Inhibitory activity against human renin (fluorogenic peptide substrate)
Type: biochemical
Details: 37° C. for 1 hour
Procedure: Inhibitory Activity Against Human Renin
A substrate of synthetic peptide (Nma-KHPFH LVIHK(Dnp)-NH2) and test compound were mixed, and fluorescence intensity was assayed using a fluorophotometer before starting an enzymatic reaction (exciting wavelength: 340 nm, measuring wavelength: 460 nm). Recombinant human renin was added and the mixture was incubated at 37° C. for 1 hour, and the fluorescence intensity was measured after the reaction using a fluorophotometer (exciting wavelength: 340 nm, measuring wavelength: 460 nm).

[1] = 50% inhibitory concentration (IC50) against human renin

IC50 [1] | IC50 (read-out: IC50) | Structure (SMILES)
6.1 nM | – | CCc1nc([C@@H](C)N(C(=O)[C@H]2CN[C@@H](C)CO2)C2CC2)cc2c1ncn2CCCOC [Example 389]
0.9 nM | – | COC(=O)NCCCn1nc([C@@H](C)N(C(=O)[C@H]2CNCCO2)C2CC2)nc1-c1ccccc1C [Example 248]
6.3 nM | – | COC(=O)NCCCn1cc([C@@H](C)N(C(=O)[C@H]2CNCCO2)C2CC2)c2cnc(C)cc21 [Example 135]
0.4 nM | – | COC(=O)NCCCc1cc([C@@H](C)N(C(=O)[C@H]2CNCCO2)C2CC2)sc1-c1ccc(C)nc1 [Example 228]
1.1 nM | – | COC(=O)NCCCc1cc([C@@H](C)N(C(=O)[C@H]2CNC[C@@H](C)O2)C2CC2)nn1-c1cccc(C(F)(F)F)c1 [Example 349]
0.6 nM | – | COC(=O)NCCCn1cc([C@@H](C)N(C(=O)[C@H]2CNC[C@@H](C)O2)C2CC2)nc1-c1ccc(F)cc1 [Example 282]
1.3 nM | – | COC(=O)NCCCc1cc([C@@H](C)N(C(=O)[C@H]2CNCCO2)C2CC2)sc1-c1ccccc1CNS(=O)(=O)C(F)(F)F [Example 284]
2.6 nM | – | CCc1cc([C@@H](C)N(C(=O)[C@H]2CNC[C@@H](C)O2)C2CC2)nc2c1cnn2CCCOC [Example 380]
– | 0.8 nM | COC(=O)NCCCn1nc([C@@H](C)N(C(=O)[C@H]2CNCCO2)C2CC2)c2ccc(C(C)C)nc21 [Example 90]
0.2 nM | – | COC(=O)NCCCc1cc([C@@H](C)N(C(=O)[C@H]2CNCCO2)C2CC2)sc1-c1ccccc1 [Example 197]
0.4 nM | – | COC(=O)NCCCn1nc([C@@H](C)N(C(=O)[C@H]2CNC[C@@H](CO)O2)C2CC2)c2ccc(C)nc21 [Example 255]
6.6 nM | – | COC(=O)NCCCn1nc([C@@H](C)N(C(=O)[C@H]2CN[C@H](CC(F)F)CO2)C2CC2)c2ccc(C)nc21 [Example 307]
– | 3 nM | COCCCn1nc(C)c2ccc([C@@H](C)N(C(=O)[C@H]3CNCCO3)C3CC3)nc21 [Example 44]
0.7 nM | – | COC(=O)NCCCc1cc([C@@H](C)N(C(=O)[C@H]2CNCCO2)C2CC2)nc2ccc(C)cc12 [Example 144]
– | 3.4 nM | COCCCN1C(=O)C(C)(C)c2ccc([C@@H](C)N(C(=O)[C@H]3CNCCO3)C3CC3)cc21 [Example 45]
1 nM | – | COC(=O)NCCCc1c(F)c([C@@H](C)N(C(=O)[C@H]2CNCCO2)C2CC2)nn1-c1ccccc1 [Example 244]
0.7 nM | – | COC(=O)NCCCc1cc([C@@H](C)N(C(=O)[C@H]2CNCCO2)C2CC2)nn1-c1ccccc1OC [Example 243]
3.8 nM | – | COC(=O)NCCCc1sc([C@H](C)N(C(=O)[C@H]2CNCCO2)C2CC2)cc1-c1cnc(N)nc1 [Example 431]
1.6 nM | – | CC[C@H]1CO[C@@H](C(=O)N(C2CC2)[C@@H](C)c2cn(CCCNC(=O)OC)c(OC(C)C)n2)CN1 [Example 336]
– | 5.3 nM | COCCCc1cn(C)c2cnc([C@@H](C)N(C(=O)[C@H]3CNCCO3)C3CC3)cc12 [Example 33]
3.2 nM | – | COC(=O)NCCCn1nc([C@@H](C)N(C(=O)[C@H]2CN[C@@H](CO)CO2)C2CC2)c2ccc(C)nc21 [Example 258]

IC50 [1] | IC50 (read-out: IC50) | Structure (SMILES)
1.2 nM | – | COC(=O)NCCCn1nc([C@@H](C)N(C(=O)[C@H]2CNCCO2)C2CC2)c2c1CCC2 [Example 190]
0.3 nM | – | COC(=O)NCCCn1cc([C@H](C)N(C(=O)[C@H]2CN[C@@H](CCF)CO2)C2CC2)nc1OC(C)C [Example 341]
2.4 nM | – | COC(=O)NCCCc1sc([C@@H](C)N(C(=O)[C@H]2CNCCO2)C2CC2)cc1Br [Example 438]
0.4 nM | – | COC(=O)NCCCn1cc([C@@H](C)N(C(=O)[C@H]2CNCCO2)C2CC2)nc1-c1ccc(Cl)cc1 [Example 170]
0.3 nM | – | COC(=O)NCCCn1nc([C@@H](C)N(C(=O)[C@H]2CNCCO2)C2CC2)cc1-c1ccccc1F [Example 173]
0.4 nM | – | COC(=O)NCCCn1cc([C@@H](C)N(C(=O)[C@H]2CN[C@@H](C)CO2)C2CC2)nc1-c1ccccc1 [Example 353]
1.3 nM | – | COCCCc1cn(C)c2cnc([C@@H](C)N(C(=O)[C@H]3CNCCO3)C3CC3)cc12 [Example 125]
– | 0.6 nM | COC(=O)NCCCn1nc([C@@H](C)N(C(=O)[C@H]2CNCCO2)C2CC2)c2cccc(C)c21 [Example 62]
0.3 nM | – | COC(=O)NCCCn1nc([C@@H](C)N(C(=O)[C@H]2CNCCO2)C2CC2)cc1-c1ccc(F)cc1 [Example 158]
1.9 nM | – | COC(=O)NCCCc1cc(C(C)N(C(=O)[C@H]2CNCCO2)C2CC2)cnc1O[C@H]1CCOC1 (stereo partly drawn) [Example 440]
0.9 nM | – | COC[C@H]1CO[C@@H](C(=O)N(C2CC2)[C@H](C)c2cc(CCCNC(=O)OC)n(-c3ccccc3)n2)CN1 [Example 283]
1 nM | – | COC(=O)NCCCc1cc([C@@H](C)N(C(=O)[C@H]2CNCCO2)C2CC2)sc1-c1cnc(N)nc1 [Example 409]
3.1 nM | – | COC(=O)NCCCc1nc(C(C)N(C(=O)[C@H]2CNCCO2)C2CC2)sc1-c1cccnc1 (stereo partly drawn) [Example 403]
– | 0.5 nM | COC(=O)NCCCn1cc([C@@H](C)N(C(=O)[C@H]2CNCCO2)C2CC2)c2nccc(C)c21 [Example 42]
0.2 nM | – | COC(=O)NCCCc1cc([C@@H](C)N(C(=O)[C@H]2CNCCO2)C2CC2)nn1C1CCCCC1 [Example 210]
3 nM | – | COC(=O)NCCCc1nc([C@@H](C)N(C(=O)[C@H]2CNCCO2)C2CC2)sc1-c1cncnc1 [Example 416]
1.1 nM | – | COC(=O)NCCCc1cc([C@@H](C)N(C(=O)[C@H]2CNCCO2)C2CC2)sc1-c1ccccc1O [Example 264]
– | 1.6 nM | COCCCCn1cc([C@@H](C)N(C(=O)[C@H]2CNCCO2)C2CC2)c2ncc(C)nc21 [Example 93]
– | 0.6 nM | COC(=O)NCCCc1cc([C@@H](C)N(C(=O)[C@H]2CNC[C@@H](C(=O)OC)O2)C2CC2)sc1-c1ccccc1 [Example 3, methyl (2S,6R)-6-{cyclopropyl[(1R)-1-(4-{3-[(methoxycarbonyl)amino]propyl}-5-phenylthiophen-2-yl)ethyl]carbamoyl}morpholine-2-carboxylate]
0.8 nM | – | COC[C@@H]1CNC[C@H](C(=O)N(C2CC2)[C@H](C)c2cc(CCCNC(=O)OC)n(C3CCOCC3)n2)O1 [Example 303]
0.4 nM | – | COC[C@@H]1CNC[C@H](C(=O)N(C2CC2)[C@H](C)c2cn(CCCNC(=O)OC)c3ncccc23)O1 [Example 292]

IC50 [1] | IC50 (read-out: IC50) | Structure (SMILES)
0.3 nM | – | COC(=O)NCCCc1cc([C@@H](C)N(C(=O)[C@H]2CNCCO2)C2CC2)sc1-c1ccccc1NS(C)(=O)=O [Example 269]
0.7 nM | – | COC[C@H]1CO[C@@H](C(=O)N(C2CC2)[C@H](C)c2nn(CCCNC(=O)OC)c3nc(C)ccc23)CN1 [Example 261]
5.1 nM | – | COC(=O)NC/C=C/c1cc([C@@H](C)N(C(=O)[C@H]2CNC[C@@H](C)O2)C2CC2)nn1-c1ccc(C(F)(F)F)cc1 [Example 356]
– | 2 nM | COCCCc1cn(C)c2ccc([C@@H](C)N(C(=O)[C@H]3CNCCO3)C3CC3)nc12 [Example 39]
2.8 nM | – | C[C@H](c1cn(Cc2cccc(F)c2)c(-c2ccccc2)n1)N(C(=O)[C@H]1CNCCO1)C1CC1 [Example 214]
– | 0.9 nM | COCCCCc1cc([C@@H](C)N(C(=O)[C@H]2CNCCO2)C2CC2)cc(OC)n1 [Example 78]
0.4 nM | – | COC(=O)NCCCc1cc([C@@H](C)N(C(=O)[C@H]2CNC[C@@H](C)O2)C2CC2)nn1-c1ccc(F)cc1 [Example 351]
0.4 nM | – | COC(=O)NCCCn1cc([C@@H](C)N(C(=O)[C@H]2CNCCO2)C2CC2)nc1-c1ccc(F)cc1 [Example 171]
– | 4.2 nM | COCCCCn1cc([C@@H](C)N(C(=O)[C@H]2CNCCO2)C2CC2)c2nc(C)ccc21 [Example 56]
0.3 nM | – | COC(=O)NCCCn1cc([C@@H](C)N(C(=O)[C@H]2CNCCO2)C2CC2)nc1-c1cccc(C)c1 [Example 178]
0.4 nM | – | COC(=O)NCCCn1nc([C@@H](C)N(C(=O)[C@H]2CNCCO2)C2CC2)cc1-c1cccnc1 [Example 186]
0.2 nM | – | COC(=O)NCCCc1cc([C@@H](C)N(C(=O)[C@H]2CNCCO2)C2CC2)nc2c1CCCC2 [Example 122]
3.6 nM | – | COc1cccc(Cn2cc([C@@H](C)N(C(=O)[C@H]3CNCCO3)C3CC3)nc2-c2ccccc2)c1 [Example 195]
3.5 nM | – | COC(=O)NCCCc1cc([C@H](C)N(C(=O)[C@H]2CNCCO2)C2CC2)sc1-c1ccnn1C [Example 427]
0.7 nM | – | COC(=O)NCCCc1cc([C@@H](C)N(C(=O)[C@H]2CNCCO2)C2CC2)cc(C(F)(F)F)n1 [Example 325]
– | 1.8 nM | COCCCCn1cc([C@@H](C)N(C(=O)[C@H]2CNCCO2)C2CC2)c2nccc(OC)c21 [Example 52]
0.3 nM | – | COC(=O)NCCCn1cc([C@@H](C)N(C(=O)[C@H]2CNCCO2)C2CC2)nc1-c1ccccc1 [Example 136]
0.9 nM | – | COC(=O)NCCCc1cc([C@@H](C)N(C(=O)[C@H]2CNCCO2)C2CC2)sc1-c1cc(F)cc(F)c1O [Example 275]
3.9 nM | – | COC(=O)NCCCc1cc(C(C)N(C(=O)[C@H]2CNCCO2)C2CC2)sc1C(C)C(F)(F)F (stereo partly drawn) [Example 405]
1.7 nM | – | COC(=O)NCCCc1nc([C@@H](C)N(C(=O)[C@H]2CNCCO2)C2CC2)sc1-c1ccnc(C)c1 [Example 407]
– | 0.7 nM | COC(=O)NCCCn1nc([C@@H](C)N(C(=O)[C@H]2CNCCO2)C2CC2)c2ccc(C(F)(F)F)nc21 [Example 72]
